# According to ChEMBL document CHEMBL1121822, “Sulfonate analogues of adenosine nucleotides as inhibitors of nucleotide-binding enzymes” (J Med Chem, 1981):
# Biological target: Alcohol dehydrogenase (Equus caballus, UniProt P00327+P00328)
# Experiment: Inhibition constant was evaluated against horse liver alcohol dehydrogenase
row,SMILES,Inhibition constant
1,Nc1ncnc2c1ncn2CCCS(=O)(=O)O,4.9 mM
2,Nc1ncnc2c1ncn2CCS(=O)(=O)O,4.3 mM
3,Nc1ncnc2c1ncn2C1O[C@H](CO)[C@H](S(=O)(=O)O)[C@H]1O (stereo partly specified),1.2 mM
4,Nc1ncnc2c1ncn2C1O[C@H](CS(=O)(=O)O)[C@@H](O)[C@H]1O (stereo partly specified),0.18 mM
5,COP(=O)(O)OC[C@H]1OC(n2cnc3c(N)ncnc32)[C@H](O)[C@@H]1O (stereo partly specified),0.44 mM
6,Nc1ncnc2c1ncn2[C@@H]1O[C@H](COP(=O)(O)O)[C@@H](O)[C@H]1O [ADENOSINE PHOSPHATE],0.038 mM
